According to patent publication US7396836B2, “Pyrimidine compound and medicinal composition thereof” (Eisai R&D Management Co., Ltd., priority 2001, dated 2008):

How the values were obtained:
[1] = target: T1, human adenosine A1 receptor (Homo sapiens, UniProt P30542); assay: Binding affinity to adenosine A1 receptor (3H-CCPA displacement); conditions: membranes of CHOK1 cells expressing human A1 receptor, Cheng-Prusoff
T1 construct: expressed in transfected cells; host or cells: CHOK1 cells (membrane sample)
T1 sequence (P30542 1-326): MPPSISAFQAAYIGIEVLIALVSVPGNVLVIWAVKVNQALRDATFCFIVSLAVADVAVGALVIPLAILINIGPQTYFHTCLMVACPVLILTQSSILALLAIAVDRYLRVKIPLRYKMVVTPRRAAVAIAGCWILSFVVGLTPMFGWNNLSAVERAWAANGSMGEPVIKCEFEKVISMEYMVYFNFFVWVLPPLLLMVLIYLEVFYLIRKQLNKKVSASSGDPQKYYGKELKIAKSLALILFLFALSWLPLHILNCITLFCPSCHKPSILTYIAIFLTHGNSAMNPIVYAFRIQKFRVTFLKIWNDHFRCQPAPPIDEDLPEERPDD
Method: Measurement of the binding affinity to adenosine A1 receptor
A human adenosine A1 receptor cDNA was expressed in excess in CHOK1 cells, and this membrane sample was suspended at a protein concentration of 66.7 μg/ml in 20 mM HEPES buffer, pH 7.4 (10 mM MgCl2, 100 mM NaCl). To 0.45 ml of this membrane sample suspension were added 0.025 ml of 60 nM tritium-labeled chlorocyclopentyl adenosine (^3H-CCPA, from NEN Ltd.) and 0.025 ml of test compound. This mixture was left at 30° C. for 120 minutes, filtered rapidly under suction through a glass fiber filter (GF/B, from Whatman), and immediately washed twice with 5 ml of 50 mM water-cooled Tris-HCl buffer. Thereafter, the glass fiber filter was transferred to a vial, scintillator was added thereto, and the radioactivity on the filter was measured by a liquid scintillation counter. The inhibition of binding of ^3H-CCPA to A1 receptor by the test compound was determined using the following formula, and from this value, 50% inhibition concentration (IC50) was calculated. Inhibition (%)=[1-{(binding in the presence of the test compound-nonspecific binding)/(total binding-nonspecific binding)}]×100
(§1) In the above formula, the total binding means ^3H-CCPA-bound radioactivity in the absence of the test compound; the nonspecific binding means ^3H-CCPA-bound radioactivity in the presence of 100 μM CPA ([R]-[1-methyl-2-phenylethyl]adenosine); and the binding in the presence of the test compound means ^3H-CCPA-bound radioactivity in the presence of the test compound at predetermined concentrations. The inhibition constant (Ki value) in the table was determined from the formula of Cheng-Prusoff.

adenosine A2A receptor = target: T2, adenosine A2A receptor (Homo sapiens, UniProt P29274); assay: Binding ability to adenosine A2A receptor (3H-CGS21680 displacement); conditions: A2A receptor membrane sample, Cheng-Prusoff
T2 construct: purchased Receptor Biology Inc
T2 sequence (P29274 whole entry): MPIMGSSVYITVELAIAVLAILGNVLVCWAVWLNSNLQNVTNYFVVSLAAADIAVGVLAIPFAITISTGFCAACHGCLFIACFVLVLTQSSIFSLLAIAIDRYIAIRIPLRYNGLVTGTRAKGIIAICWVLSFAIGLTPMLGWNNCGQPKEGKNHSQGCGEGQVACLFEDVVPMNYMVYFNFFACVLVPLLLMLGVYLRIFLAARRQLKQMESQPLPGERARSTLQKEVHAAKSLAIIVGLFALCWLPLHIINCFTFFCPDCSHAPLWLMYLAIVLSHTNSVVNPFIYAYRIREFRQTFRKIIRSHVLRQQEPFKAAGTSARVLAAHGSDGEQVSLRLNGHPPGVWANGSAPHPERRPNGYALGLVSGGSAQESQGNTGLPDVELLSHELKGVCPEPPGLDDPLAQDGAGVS
Method: Measurement of the Binding Ability to Adenosine A2A Receptor
An experiment of inhibition of binding to adenosine A2A receptor was conducted using a membrane sample (Receptor Biology Inc.) where an adenosine A2A receptor cDNA was expressed in excess. This membrane sample was suspended at a protein concentration of 22.2 μg/ml in 20 mM HEPES buffer, pH 7.4 (10 mM MgCl2 and 100 mM NaCl). To 0.45 ml of this membrane sample suspension were added 0.025 ml of 500 nM tritium-labeled 2-p-[2-carboxyethyl]phenetylamino-5′-N-ethylarboxyamide adenosine (^3H-CGS21680, from NEN) and 0.025 ml of test compound. This mixture was left at 25° C. for 90 minutes, filtered rapidly under suction through a glass fiber filter (GF/B, from Whatman), and immediately washed twice with 5 ml of 50 mM ice-cooled Tris-HCl buffer. Thereafter, the glass fiber filter was transferred to a vial, scintillator was added thereto, and the radioactivity on the filter was measured by a liquid scintillation counter. The inhibition of binding of ^3H-CGS21680 to A2A receptor by the test compound was determined using the following formula, and from this inhibition, 50% inhibition concentration (IC50) was calculated. Inhibition (%)=[1−{[(binding in the presence of the test compound)−(nonspecific binding)]/[(total binding)−(nonspecific binding)]}]×100
as §1, with “Here,” for “In the above formula,”, “^3H-CGS21680-bound” for “^3H-CCPA-bound”, “RPIA;” for “CPA ([R]-[1-methyl-2-phenylethyl]adenosine);”

[2] = target: T3, human adenosine A2B receptor (Homo sapiens, UniProt P29275); assay: Inhibition of NECA-stimulated production of cAMP in adenosine A2B receptor-expressing CHOK1 cells; format: cell-based; conditions: cAMP stimulated by 30 nM NECA
T3 construct: expressed in transfected cells; host or cells: CHOK1 cells
T3 sequence (P29275 1-332): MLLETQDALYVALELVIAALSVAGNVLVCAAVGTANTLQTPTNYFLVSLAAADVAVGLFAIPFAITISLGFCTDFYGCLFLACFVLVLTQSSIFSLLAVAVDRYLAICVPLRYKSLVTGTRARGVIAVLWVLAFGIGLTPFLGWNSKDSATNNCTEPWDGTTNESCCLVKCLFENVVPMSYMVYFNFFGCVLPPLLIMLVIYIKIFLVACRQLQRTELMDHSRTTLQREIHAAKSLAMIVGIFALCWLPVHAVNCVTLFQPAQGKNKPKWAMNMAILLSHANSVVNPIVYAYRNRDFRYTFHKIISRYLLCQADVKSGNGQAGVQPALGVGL
Method: Experiment of Inhibition of NECA-stimulated Production of cAMP in Adenosine A2B Receptor-expressing Cells
CHOK1 cells where human adenosine A2B receptor had been expressed in excess were plated onto a 24-well plate at a density of 1.5×10^5 cells/well, cultured overnight, and used in the experiment. The degree of inhibitory effect of the test compound on the amount of cAMP produced by stimulation with 30 nM 5′-N-ethylcarboxyamide adenosine (NECA from Sigma) was evaluated in terms of affinity for A2B receptor. That is, the adhering cells were washed twice with 2 ml/well Krebs-Ringer buffer solution (containing 0.1% BSA; pH 7.4) and pre-incubated for 30 minutes in a volume of 0.5 ml/well. Then, a mixed solution containing NECA and the test compound was added in a volume of 0.1 ml/well in the presence of a phosphodiesterase inhibitor Ro-20-1724 (a product of RBI). After pre-incubation for 15 minutes, the reaction was terminated with 0.1 N HCl in a volume of 300 μl/well. Measurement of intracellular cAMP was carried out using a cAMP enzyme immunoassay kit produced by Amersham. The inhibition of NECA-stimulated production of cAMP by the test compound was determined using the following equation: Inhibition (%)=[1−{(amount of cAMP in the coexistence of NECA and the test compound-amount of cAMP in only the Krebs-Ringer buffer solution)/(amount of cAMP upon stimulation with NECA only-amount of cAMP in only the Krebs-Ringer buffer solution)}]×100

SD IGS rats = assay: Evaluation of defecation-promoting action; format: in vivo, rat; conditions: 3 mg/kg oral, 90 minutes after administration, per cage (3 animals/cage)
Excerpt: Evaluation of Defecation-Promoting Action
The defecation-promoting action of the adenosine A2B receptor-inhibiting compound which was identified by measuring the binding affinity or antagonistic activity thereof to the adenosine receptor in Test Examples 1 to 3, a salt thereof, a solvate of them, or a pharmaceutical composition containing it can be evaluated on the basis of the following method. That is, SD IGS rats (6 weeks-old, from Charles River) were placed in cages (3 animals/cage) and preliminarily allowed food and water ad libitum and raised for 1 week. Then, a tared water-absorbing sheet was placed below each cage, and the animals were fasted but allowed water ad libitum throughout the experiment. After 1.5 hours, the fecal pellets were collected from each cage and observed for abnormality before the experiment. The compound suspended or dissolved in 0.5% (w/v) methyl cellulose (MC) was orally administered in a volume of 5 ml/kg. On one hand, 0.5% (w/v) MC only was orally given to the control group. After administration of the compound, the rats were returned to the cage provided with a new water-absorbing sheet, and 90 minutes after the administration, the fecal pellets on the water-absorbing sheet were collected from each cage, and the external appearance was observed, and then counted and weighed. The number of fecal pellets is expressed per each cage.

[3] = test system: haloperidol-induced catalepsy; assay: Evaluation of effects on haloperidol-induced catalepsy; format: in vivo, mouse; conditions: ICR mice, haloperidol 1 mg/kg i.p., 1 hour after administration, score 0-5
Excerpt: Evaluation of Effects on Haloperidol-induced Catalepsy Parkinson's disease is a disease caused by the degeneration or cell death of nigrostriatal dopaminergic neurons. The administration of haloperidol (dopamine D1/D2 receptor antagonist) blocks postsynaptic D2 receptors to induce catalepsy. The haloperidol-induced catalepsy has been known as a classic model that mimics Parkinson's disease by drug administration (Eur. J. Pharmacol., 182, 327-334(1990)). The adenosine A2A receptor antagonist compounds identified by measuring on their binding abilities to the receptors in Test Examples 1 to 3, the salts thereof, solvates of them, or pharmaceutical compositions containing those were evaluated for effect on haloperidol-induced catalepsy by the method described below. That is, the experiment was conducted by eight 5-week-old male ICR mice (available from Charles River) per group. Haloperidol (manufactured by Sigma Co., Ltd.) was dissolved in a 6.1% tartaric acid solution and the resulting solution in a dose of 1 mg/kg was then intraperitoneally administered to the mice. The test compound was used as a 0.5% MC suspension. 1.5 hours after the intraperitoneal administration of haloperidol, each of the suspension with the test compound and the suspension without the test compound (control) was orally administered to the mice (0.1 ml per 10 g of mouse body weight). 1 hour after the administration of the test compound, the degree of catalepsy was measured with respect to each of the mice such that a pair of only forelimbs and a pair of only hindlimbs of each mouse were placed by turns on a stand 4.5 cm in height and 10 cm in width. […] Catalepsy scores and criterions are as follows. […] The effects of the compound were determined by making a comparison between the score of the control group and the score of the test group in which the test compound was administered. A significant difference was analyzed by Dunnett's-test.

Ki [1] [nM] | Ki (adenosine A2A receptor) [nM] | IC50 [2] [nM] | SMILES | Number of fecal pellets Mean ± S.E. (SD IGS rats) | Catalepsy score (Mean ± S.E.) ([3]; test compound 0.1 mg/kg oral) | Catalepsy score (Mean ± S.E.) ([3]; test compound 1.0 mg/kg oral)
175 | 6 | 29 | Cn1cc(-c2cnc(N)nc2-c2ccco2)ccc1=O [Example 16, 5-[2-Amino-4-(2-furyl)-5-pyrimidinyl]-1-methyl-1,2-dihydro-2-pyridinone] | 12.50 ± 0.96 | 4.63 ± 0.38 | 0.88 ± 0.64
289 | 3 | 25 | CCn1cc(-c2cnc(N)nc2-c2ccco2)ccc1=O [Example 17, 5-[2-Amino-4-(2-furyl)-5-pyrimidinyl]-1-ethyl-1,2-dihydro-2-pyridinone] | 15.50 ± 3.18 | 3.38 ± 0.53 | 1.13 ± 0.67
114 | 2 | 26 | C=CCn1cc(-c2cnc(N)nc2-c2ccco2)ccc1=O [Example 18, 1-Allyl-5-[2-amino-4-(2-furyl)-5-pyrimidinyl]-1,2-dihydro-2-pyridinone] | 14.50 ± 1.26 | – | –
